Results on 24 compounds are retold here after patent US20210393810A1, “DIHYDRAZONE COMPOUNDS HAVING HIGH AFFINITY TO A BETA PROTEIN AND TAU PROTEIN, DERIVATIVES THEREOF AND USE THEREOF” (HTA CO., LTD., priority 2019, published 2021).

For one data set, the target named is T1, Aβ1-42 aggregates (Homo sapiens, UniProt P05067).
T1 construct: preparing Aβ1-42 proteins according to the known methods
The data set can be described thus: Competitive binding experiment with [125I]IMPY. The settings on record: competition with [125I]IMPY, Aβ1-42, 37° C., 3 hours. As for the experimental part: (1) formulating a 0.1% BSA solution with pH=7.4;
(2) preparing a radioligand [125I] IMPY according to the known methods; formulating [125I] IMPY into a solution of 60000-100000 cpm/100 μL for later use;
(3) formulating the compound to be tested into a 10^−5 to 10^−11 mol/L serially diluted ethanol solution;
(4) preparing Aβ1-42 proteins according to the known methods, and diluting it into an aqueous solution of about 30 nM;
(5) soaking a glass fiber filter membrane in PBS solution containing 0.1% polyethyleneimine for 30 minutes;
(6) adding 100 μL of the test compound solutions with different concentrations and 100 μL of [125I] IMPY solution, 700 μL of BSA solution and 100 μL of Aβ1-42 solution into a 12 mm×75 mm borosilicate glass tube, and vortexing;
(7) incubating with shaking in a constant temperature water bath at 37° C. for 3 hours;
(8) collecting the reaction solution by a multi-head cell collector, and rinsing the reaction solution for three times with 10% ethanol solution;
(9) measuring and counting with a gamma counter;
(10) analyzing and processing data using GraphPrad Prism 5.01 to obtain an affinity constant Ki.
Activity between some compounds and Aβ1-42 aggregates was quantitatively determined by the method.

The nature of data set [1]: Biodistribution experiment in normal mice. The class given is in vivo, mice (ICR, male). The following applies: for biodistribution, blood / biodistribution, brain: normal ICR mice; for clearance from the brain / passage through the blood-brain barrier / time at which the brain uptake reaches its peak: normal mice; for time at which the brain uptake reaches its peak: after injection. As for the experimental part:
Pharmacokinetic properties in mice, especially the initial brain uptake and brain clearance, were studied through distribution experiments in vivo.
5-10 μCi labelled compounds (100 μL physiological saline solution, containing 10% ethanol) were injected into normal mice (ICR, male, 20-22 g, 5 weeks old) through the tail vein (n=5), and mice were decapitated at 2 minutes, 10 minutes, 30 minutes and 60 minutes after injection, respectively, and organs to be tested were took out by dissection, and the wet weight was measured and radioactive counting was conducted. Data is expressed as the percentage of radioactive dose per gram of organ (% ID/g).

[2] abbreviates: 2 min after tail vein injection.
Setting [3] is: 10 min after tail vein injection.
Where [4] appears, read: 30 min after tail vein injection.
Where [5] appears, read: 60 min after tail vein injection.

Usually Ki stands for the equilibrium dissociation constant of an inhibitor or competing ligand from its target. A higher Ki goes with a looser hold on the target.

T1 sequence (P05067 672-713): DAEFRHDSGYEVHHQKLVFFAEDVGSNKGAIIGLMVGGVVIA

Compound `CNc1ccc(/C=N/N=C/c2ccc(NC)cc2)cc1` [Compound 9] yielded a Ki on Aβ1-42 aggregates of 45.2 ± 18.4 nM.
Still for that read-out and setting: the figure for `CCN(CC)c1ccc(/C=N/N=C/c2ccc(N(CC)CC)cc2)cc1` [Compound 11] is 5.1 ± 1.87 nM; for `C(=N\N=C\c1ccc(N2CCCC2)cc1)/c1ccc(N2CCCC2)cc1` [Compound 13] it is 1.2 ± 0.25 nM.
The compound `C(=N\N=C\c1ccc(N2CCCCC2)cc1)/c1ccc(N2CCCCC2)cc1` [Compound 14] returned a Ki at Aβ1-42 aggregates of 1.39 ± 0.25 nM.
The same measure, in the same setting: the result for `C(=N\N=C\c1ccc(N2CCOCC2)cc1)/c1ccc(N2CCOCC2)cc1` [Compound 15] reads 147 ± 2.06 nM; that for `CN(C)c1ncc(/C=N/N=C/c2cnc(N(C)C)nc2)cn1` [Compound 17], 124 ± 21.7 nM.
Same read-out and setting: the result for `CNc1ccc(/C=N/N=C/c2ccc(N(C)C)cc2)cc1` [Compound 36] reads 35.1 ± 19.3 nM.
Still for that read-out and setting: the result for `CNc1ccc(/C=N/N=C/c2ccc(O)cc2)cc1` [Compound 63] reads 277 ± 50.5 nM.
In turn, `CN(C)c1ccc(/C=N/N=C/c2ccc(OCCF)cc2)cc1` [Compound 87] came in with a Ki at Aβ1-42 aggregates of 5.17 ± 1.4 nM.
Still for that read-out and setting: the figure for `CNc1ccc(/C=N/N=C/c2ccc(OCCF)cc2)cc1` [Compound 88] is 10.4 ± 6.71 nM; for `CN(C)c1ccc(/C=N/N=C/c2ccc(OCCOCCF)cc2)cc1` [Compound 89] it is 2.45 ± 1.7 nM.
Same read-out and setting: the figure for `CNc1ccc(/C=N/N=C/c2ccc(OCCOCCF)cc2)cc1` [Compound 90] is 8.07 ± 2.89 nM.
The same measure, in the same setting: the figure for `CN(C)c1ccc(/C=N/N=C/c2ccc(OCCOCCOCCF)cc2)cc1` [Compound 91] is 6.38 ± 0.72 nM; for `CNc1ccc(/C=N/N=C/c2ccc(OCCOCCOCCF)cc2)cc1` [Compound 92] it is 46.4 ± 15.5 nM; for `CN(C)c1ccc(/C=N/N=C/c2ccc(OCCOCCOCCF)nc2)cc1` [Compound 93] it is 10.9 ± 0.97 nM.
On to `CNc1ccc(/C=N/N=C/c2ccc(OCCOCCOCCF)nc2)cc1` [Compound 94], for which the Ki on Aβ1-42 aggregates was determined as 42.9 ± 20.5 nM.
Turning to `CN(C)c1ccc(/C=N/N=C/c2ccc(OCC[18F])cc2)cc1` [[18F]87], in data set [1] (setting [2]), the “biodistribution, blood” value was found to be 3.98 ± 0.24 % ID/g and the “biodistribution, brain” value stood at 10.66 ± 0.89 % ID/g. In data set [1] (setting [3]), the “biodistribution, blood” value is recorded as 3.36 ± 0.19 % ID/g and the “biodistribution, brain” value is given as 11.00 ± 0.80 % ID/g. For the same compound, in data set [1] (setting [4]), the “biodistribution, blood” value was found to be 3.00 ± 0.13 % ID/g and the “biodistribution, brain” value worked out at 6.69 ± 0.42 % ID/g. In addition, in data set [1] (setting [5]), the “biodistribution, blood” value was 2.73 ± 0.42 % ID/g and the “biodistribution, brain” value came to 4.56 ± 0.58 % ID/g. Moreover, in data set [1], the “clearance from the brain” value is “cleared faster in the brain of normal mice”, the “passage through the blood-brain barrier” value is recorded as “can effectively pass through the blood-brain barrier” and the “time at which the brain uptake reaches its peak” value (from here on “time”) stood at 2 min.
For the compound `CNc1ccc(/C=N/N=C/c2ccc(OCC[18F])cc2)cc1` [[18F]88], in data set [1] (setting [2]), the “biodistribution, blood” value is given as 3.32 ± 0.26 % ID/g and the “biodistribution, brain” value was determined as 9.21 ± 0.63 % ID/g. In addition, in data set [1] (setting [3]), the “biodistribution, blood” value was determined as 3.57 ± 0.34 % ID/g and the “biodistribution, brain” value was 8.24 ± 0.36 % ID/g. Besides, in data set [1] (setting [4]), the “biodistribution, blood” value was 3.31 ± 0.13 % ID/g and the “biodistribution, brain” value was found to be 4.81 ± 0.27 % ID/g. Further, in data set [1] (setting [5]), the “biodistribution, blood” value was found to be 2.90 ± 0.32 % ID/g and the “biodistribution, brain” value was determined as 3.02 ± 0.15 % ID/g. For the same compound, in data set [1], the “clearance from the brain” value is given as “cleared faster in the brain of normal mice”, the “passage through the blood-brain barrier” value is given as “can effectively pass through the blood-brain barrier” and the “time” value is 2 min.
Regarding `CN(C)c1ccc(/C=N/N=C/c2ccc(OCCOCC[18F])cc2)cc1` [[18F]89], in data set [1] (setting [2]), the “biodistribution, blood” value is recorded as 2.95 ± 0.31 % ID/g and the “biodistribution, brain” value turned out to be 10.88 ± 0.75 % ID/g. In addition, in data set [1] (setting [3]), the “biodistribution, blood” value came to 3.24 ± 1.25 % ID/g and the “biodistribution, brain” value is recorded as 10.62 ± 0.58 % ID/g. In data set [1] (setting [4]), the “biodistribution, blood” value worked out at 4.78 ± 0.24 % ID/g and the “biodistribution, brain” value turned out to be 6.06 ± 0.38 % ID/g. In data set [1] (setting [5]), the “biodistribution, blood” value came to 5.42 ± 0.65 % ID/g and the “biodistribution, brain” value stood at 4.55 ± 0.48 % ID/g. Also, in data set [1], the “clearance from the brain” value is recorded as “cleared faster in the brain of normal mice”, the “passage through the blood-brain barrier” value is on record as “can effectively pass through the blood-brain barrier” and the “time” value came out at 2 min.
Consider `CNc1ccc(/C=N/N=C/c2ccc(OCCOCC[18F])cc2)cc1` [[18F]90], for which, in data set [1] (setting [2]), the “biodistribution, blood” value is recorded as 3.72 ± 0.44 % ID/g and the “biodistribution, brain” value stood at 11.05 ± 1.70 % ID/g. Besides, in data set [1] (setting [3]), the “biodistribution, blood” value worked out at 3.85 ± 0.26 % ID/g and the “biodistribution, brain” value worked out at 7.81 ± 0.60 % ID/g. Also, in data set [1] (setting [4]), the “biodistribution, blood” value stood at 4.90 ± 0.61 % ID/g and the “biodistribution, brain” value is recorded as 4.92 ± 0.41 % ID/g. In data set [1] (setting [5]), the “biodistribution, blood” value amounted to 5.44 ± 0.40 % ID/g and the “biodistribution, brain” value is given as 3.97 ± 0.28 % ID/g. In data set [1], the “clearance from the brain” value is listed as “cleared faster in the brain of normal mice”, the “passage through the blood-brain barrier” value is given as “can effectively pass through the blood-brain barrier” and the “time” value came to 2 min.
Regarding `CN(C)c1ccc(/C=N/N=C/c2ccc(OCCOCCOCC[18F])cc2)cc1` [[18F]91], in data set [1] (setting [2]), the “biodistribution, blood” value was determined as 3.08 ± 0.45 % ID/g and the “biodistribution, brain” value was determined as 10.39 ± 1.07 % ID/g. Also, in data set [1] (setting [3]), the “biodistribution, blood” value turned out to be 2.86 ± 0.28 % ID/g and the “biodistribution, brain” value worked out at 7.56 ± 0.91 % ID/g. Also, in data set [1] (setting [4]), the “biodistribution, blood” value stood at 3.83 ± 0.27 % ID/g and the “biodistribution, brain” value is 2.93 ± 0.13 % ID/g. In data set [1] (setting [5]), the “biodistribution, blood” value came out at 3.66 ± 0.40 % ID/g and the “biodistribution, brain” value is 1.60 ± 0.10 % ID/g. Further, in data set [1], the “clearance from the brain” value is reported as “cleared faster in the brain of normal mice”, the “passage through the blood-brain barrier” value was “can effectively pass through the blood-brain barrier” and the “time” value amounted to 2 min.
In the case of `CNc1ccc(/C=N/N=C/c2ccc(OCCOCCOCC[18F])cc2)cc1` [[18F]92], in data set [1] (setting [2]), the “biodistribution, blood” value was found to be 3.81 ± 0.35 % ID/g and the “biodistribution, brain” value stood at 7.84 ± 0.50 % ID/g. For the same compound, in data set [1] (setting [3]), the “biodistribution, blood” value is given as 3.06 ± 0.49 % ID/g and the “biodistribution, brain” value was 3.94 ± 0.13 % ID/g. For the same compound, in data set [1] (setting [4]), the “biodistribution, blood” value came out at 3.26 ± 0.17 % ID/g and the “biodistribution, brain” value is listed as 1.88 ± 0.03 % ID/g. Moreover, in data set [1] (setting [5]), the “biodistribution, blood” value turned out to be 3.05 ± 0.45 % ID/g and the “biodistribution, brain” value stood at 1.17 ± 0.07 % ID/g. In data set [1], the “clearance from the brain” value is listed as “cleared faster in the brain of normal mice”, the “passage through the blood-brain barrier” value is listed as “can effectively pass through the blood-brain barrier” and the “time” value worked out at 2 min.
For the compound `CN(C)c1ccc(/C=N/N=C/c2ccc(OCCOCCOCC[18F])nc2)cc1` [[18F]93], the “biodistribution, blood” value in data set [1] (setting [2]) was 3.53 ± 0.24 % ID/g; in data set [1] (setting [3]) it was 3.16 ± 1.00 % ID/g; in data set [1] (setting [4]) it was 3.64 ± 0.29 % ID/g; in data set [1] (setting [5]), 2.46 ± 0.33 % ID/g. The “biodistribution, brain” value in data set [1] (setting [2]) came out at 11.39 ± 1.08 % ID/g; in data set [1] (setting [3]), 5.55 ± 0.37 % ID/g; in data set [1] (setting [4]), 2.41 ± 0.22 % ID/g; in data set [1] (setting [5]), 1.44 ± 0.15 % ID/g. In addition, the “clearance from the brain” value in data set [1] is on record as “cleared faster in the brain of normal mice”. In data set [1], the “passage through the blood-brain barrier” value is “can effectively pass through the blood-brain barrier”. Also, the “time” value in data set [1] came out at 2 min.
For `CNc1ccc(/C=N/N=C/c2ccc(OCCOCCOCC[18F])nc2)cc1` [[18F]94], in data set [1] (setting [2]), the “biodistribution, blood” value was 4.30 ± 0.09 % ID/g and the “biodistribution, brain” value amounted to 8.59 ± 0.57 % ID/g. In data set [1] (setting [3]), the “biodistribution, blood” value stood at 3.40 ± 0.28 % ID/g and the “biodistribution, brain” value was determined as 4.09 ± 0.38 % ID/g. Also, in data set [1] (setting [4]), the “biodistribution, blood” value was 3.66 ± 0.18 % ID/g and the “biodistribution, brain” value was determined as 2.40 ± 0.15 % ID/g. Further, in data set [1] (setting [5]), the “biodistribution, blood” value is listed as 2.59 ± 0.15 % ID/g and the “biodistribution, brain” value is reported as 1.36 ± 0.13 % ID/g. For the same compound, in data set [1], the “clearance from the brain” value is “cleared faster in the brain of normal mice”, the “passage through the blood-brain barrier” value is reported as “can effectively pass through the blood-brain barrier” and the “time” value is 2 min.
